Source: patent US12371454B2, “Cyclic peptide compound having Kras inhibitory action” (priority 2019, dated 2025)
Starred links: 1 amine or outer side, 2 acyl side, 3 side chain; linkers in the order of their positions; H or OH if unused. Positions of bridges follow the written chain, without caps; N, C: chain ends. Non-standard residues stand in square brackets, D forms with d. Residues, ends and D or L forms follow the SMILES beside them. *: point of attachment. hPhe(3-Cl-4-CF3) = N[C@@H](CCc1ccc(C(F)(F)F)c(Cl)c1)C(=O)O; hPhe(3-F,4-CF3) = N[C@@H](CCc1ccc(C(F)(F)F)c(F)c1)C(=O)O; 3Oxa8azabicyclo(3.2.1)octane = C1CC2COCC1N2*; NMePhe(4-Cl) = CN[C@@H](Cc1ccc(Cl)cc1)C(=O)O; NMePhe(4-Me) = CN[C@@H](Cc1ccc(C)cc1)C(=O)O; NMedβ3hAla = C[C@H](CC(=O)[*:2])N(C)[*:1]; NMeGly(cPent) = CN[C@H](C(=O)O)C1CCCC1; NMeCha = CN[C@@H](CC1CCCCC1)C(=O)O; NMehLeu = CN[C@@H](CCC(C)C)C(=O)O; NMeChg = CN[C@H](C(=O)O)C1CCCCC1; NMeI = CC[C@H](C)[C@H](NC)C(=O)O; Gly(cBu) = N[C@H](C(=O)O)C1CCC1; NMeD = CN[C@@H](CC(=O)O)C(=O)O; NMeL = CN[C@@H](CC(C)C)C(=O)O; NMeNle = CCCC[C@H](NC)C(=O)O; NMeV = CN[C@H](C(=O)O)C(C)C; d(β3hA) = C[C@@H](N)CC(=O)O; NMeS = CN[C@@H](CO)C(=O)O; Morpholide = C1CN(*)CCO1; NMeA = CN[C@@H](C)C(=O)O; Piperidide = C1CCN(*)CC1; Pyrrolidide = C1CCN(*)C1; Thz = O=C(O)[C@@H]1CSCN1; dNMeA = CN[C@H](C)C(=O)O; Ac5c = NC1(C(=O)O)CCCC1; Aze = O=C(O)[C@@H]1CCN1; NEtG = CCNCC(=O)O; Sar = CNCC(=O)O; Propyl = CCC*

These compounds were tested on Human pancreatic cancer cell line AsPC-1 (assay: Measurement of AsPC-1 cell growth inhibition (AsPC-1 CGI)). Details: 96 h.
Type: cell-based
Summary of the method: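 AsPC-1 cells in 15% FBS RPMI-1640 were exposed to test compound for 96 hours at 37° C, with CellTiter-Glo as endpoint.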

SMILES	IC50
CC[C@H](C)[C@@H]1NC(=O)[C@H](CC(C)C)N(C)C(=O)C[C@@H](C(=O)N2CCCCC2)N(C)C(=O)[C@H](C2CCCCC2)N(C)C(=O)C2(CCCC2)NC(=O)[C@@H]2CSCN2C(=O)[C@H](CCc2ccc(C(F)(F)F)c(Cl)c2)NC(=O)CN(C)C(=O)[C@H](CC2CCCCC2)N(C)C(=O)CN(C)C(=O)CN(C)C1=O [Compound 1093] ([NMeL]I[Sar][Sar][NMeCha][Sar][hPhe(3-Cl-4-CF3)][Thz][Ac5c][NMeChg][NMeD]-Piperidide; lactam N-11)	20 to 50 nM
CCCOC[C@H]1C(=O)N(CC)CC(=O)N[C@@H](CCc2ccc(C(F)(F)F)c(Cl)c2)C(=O)N2CCC[C@H]2C(=O)NC2(CCCC2)C(=O)N(C)[C@@H](C2CCCC2)C(=O)N(C)[C@H](C(=O)N2C3CCC2COC3)CC(=O)N(C)[C@@H](CC(C)C)C(=O)N[C@@H]([C@@H](C)CC)C(=O)N(C)[C@@H](C)C(=O)N2CC[C@H]2C(=O)N1C [Compound 1338] ([NMeL]I[NMeA][Aze][NMeS](Propyl)[NEtG][hPhe(3-Cl-4-CF3)]P[Ac5c][NMeGly(cPent)][NMeD]-{3Oxa8azabicyclo(3.2.1)octane}; lactam N-11)	50 to 100 nM
CCCC[C@H]1C(=O)N[C@@H]([C@@H](C)CC)C(=O)N(C)[C@@H](C)C(=O)N2CC[C@H]2C(=O)N(C)[C@@H](CC2CCCCC2)C(=O)N(C)CC(=O)N[C@@H](CCc2ccc(C(F)(F)F)c(Cl)c2)C(=O)N2CCC[C@H]2C(=O)NC2(CCCC2)C(=O)N(C)[C@@H](C(C)C)C(=O)N(C)[C@H](C(=O)N2CCCCC2)CC(=O)N1C [Compound 1616] ([NMeNle]I[NMeA][Aze][NMeCha][Sar][hPhe(3-Cl-4-CF3)]P[Ac5c][NMeV][NMeD]-Piperidide; lactam N-11)	100 to 500 nM
CC(C)C[C@H]1C(=O)N[C@@H](C2CCC2)C(=O)N(C)[C@@H](C)C(=O)N2CC[C@H]2C(=O)N(C)[C@@H](CC2CCCCC2)C(=O)N(C)CC(=O)N[C@@H](CCc2ccc(C(F)(F)F)c(Cl)c2)C(=O)N2CCC[C@H]2C(=O)NC2(CCCC2)C(=O)N(C)[C@@H](C(C)C)C(=O)N(C)[C@H](C(=O)N2CCCCC2)CC(=O)N1C [Compound 157] ([NMeL][Gly(cBu)][NMeA][Aze][NMeCha][Sar][hPhe(3-Cl-4-CF3)]P[Ac5c][NMeV][NMeD]-Piperidide; lactam N-11)	100 to 500 nM
CC[C@H](C)[C@@H]1NC(=O)[C@H](CC(C)C)N(C)C(=O)C[C@@H](C(=O)N2CCCC2)N(C)C(=O)[C@H]([C@@H](C)CC)N(C)C(=O)C2(CCCC2)NC(=O)[C@@H]2CCCN2C(=O)[C@H](CCc2ccc(C(F)(F)F)c(F)c2)NC(=O)CN(C)C(=O)[C@H](Cc2ccc(C)cc2)N(C)C(=O)[C@@H]2CCN2C(=O)[C@H](C)N(C)C1=O [Compound 44] ([NMeL]I[NMeA][Aze][NMePhe(4-Me)][Sar][hPhe(3-F,4-CF3)]P[Ac5c][NMeI][NMeD]-Pyrrolidide; lactam N-11)	20 to 50 nM
CC[C@H](C)[C@@H]1NC(=O)[C@H](CCC(C)C)N(C)C(=O)C[C@@H](C(=O)N2CCOCC2)N(C)C(=O)[C@H](C2CCCC2)N(C)C(=O)C2(CCCC2)NC(=O)[C@@H]2CCCN2C(=O)[C@H](CCc2ccc(C(F)(F)F)c(Cl)c2)NC(=O)CN(C)C(=O)[C@H](C2CCCC2)N(C)C(=O)[C@@H]2CCN2C(=O)[C@H](C)NC1=O [Compound 1223] ([NMehLeu]IA[Aze][NMeGly(cPent)][Sar][hPhe(3-Cl-4-CF3)]P[Ac5c][NMeGly(cPent)][NMeD]-Morpholide; lactam N-11)	20 to 50 nM
CC[C@H](C)[C@@H]1NC(=O)[C@H](CC(C)C)N(C)C(=O)C[C@@H](C(=O)N2CCCC2)N(C)C(=O)[C@H](C2CCCC2)N(C)C(=O)C2(CCCC2)NC(=O)[C@@H]2CCCN2C(=O)[C@H](CCc2ccc(C(F)(F)F)c(F)c2)NC(=O)CN(C)C(=O)[C@H](C2CCCC2)N(C)C(=O)[C@@H]2CCN2C(=O)[C@H](C)N(C)C1=O [Compound 918] ([NMeL]I[NMeA][Aze][NMeGly(cPent)][Sar][hPhe(3-F,4-CF3)]P[Ac5c][NMeGly(cPent)][NMeD]-Pyrrolidide; lactam N-11)	20 to 50 nM
CC[C@H](C)[C@@H]1NC(=O)[C@H](C(C)C)N(C)C(=O)C[C@@H](C)NC(=O)[C@H](C(C)C)N(C)C(=O)C2(CCCC2)NC(=O)[C@H](CC(C)C)N(C)C(=O)[C@H](CCc2ccc(C(F)(F)F)c(Cl)c2)NC(=O)CN(C)C(=O)[C@H](Cc2ccc(Cl)cc2)N(C)C(=O)CN(C)C(=O)CN(C)C1=O [Compound 1069] (cyclo([Ac5c][NMeV][d(β3hA)][NMeV]I[Sar][Sar][NMePhe(4-Cl)][Sar][hPhe(3-Cl-4-CF3)][NMeL]))	100 to 500 nM
CC[C@H](C)[C@@H]1NC(=O)[C@H](C)N(C)C(=O)C[C@@H](C)N(C)C(=O)[C@H](C(C)C)N(C)C(=O)C2(CCCC2)NC(=O)[C@@H]2CCCN2C(=O)[C@H](CCc2ccc(C(F)(F)F)c(Cl)c2)NC(=O)[C@@H](C)N(C)C(=O)[C@H](CC2CCCCC2)N(C)C(=O)[C@@H]2CCN2C(=O)[C@H](C)N(C)C1=O [Compound 1773] (cyclo([Ac5c][NMeV][NMedβ3hAla][NMeA]I[NMeA][Aze][NMeCha][dNMeA][hPhe(3-Cl-4-CF3)]P))	100 to 500 nM
